Test results: PubChem BioAssay AID588780 (Sanford-Burnham Center for Chemical Genomics, 2011)
Calls of active or inactive are those of the source.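 The calls were made as follows: active = compounds whose fitted half-maximal concentration in the cell-protection dose series is at or below a set limit; inactive = the rest.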

tested on: H9c2 cardiomyocytes, 2-deoxyglucose stress, ATP luminescence, 2 h; assay: H9c2 cell survival under 2-deoxyglucose stress – uHTS hits, dose response (AID 588780)

| Structure (SMILES) | IC50 |
| --- | --- |
| COc1ccc(C(CC(=O)N2CCN(c3ccccc3)CC2)c2c(OC)cc(OC)c3ccc(=O)oc23)cc1 (stereo not given) | 23.2 µM |
| CCOc1ccc2[nH]c(=O)c(CN(Cc3nnnn3Cc3ccco3)C3CCCCC3)cc2c1 | > 79 µM (inactive) |
| COCCN1Cc2cccc(C(=O)Nc3cccc(-c4nc5ccccc5[nH]4)c3)c2C1=O | > 79 µM (inactive) |
| COc1ccc(-c2cc(C(F)F)n3ncc(C(=O)Nc4ccc(C(=O)N5CCOCC5)cc4)c3n2)cc1 | > 79 µM (inactive) |
| CCn1c(O)c(/C=N/N=C2CCCC2)c2ccc(C3=NNC(=O)CC3)cc21 | > 79 µM (inactive) |
| O=C(NC1CCCCC1)C(c1ccc2ncccc2c1)N(Cc1ccco1)C(=O)c1ccc2c(c1)OCCO2 (stereo not given) | 31.4 µM (inactive) |
| CCOC(=O)c1cc(-c2nnc(-c3cc(OC)c(OC)c(OC)c3)o2)c(C)nc1C | > 79 µM (inactive) |
| O=C(COc1ccccc1F)Nc1nc(-c2ccccn2)cs1 | > 79 µM (inactive) |
| COc1ccc(OC)c(/C=N/Nc2nncn2/N=C/c2cc(OC)ccc2OC)c1 | > 79 µM (inactive) |
| O=C(CCc1nc2ccccc2c(=O)[nH]1)NCCN1C(=O)S/C(=C\c2ccc(OC(F)F)cc2)C1=O | > 79 µM (inactive) |
| COc1ccc(CCCNC(=O)C2(C)Cc3c(-c4ccc(NC(C)=O)cc4)ccnc3O2)cc1 (stereo not given) | > 79 µM (inactive) |
| Cn1c(=O)c2c(nc(NCc3cccnc3)n2Cc2cccc(C(F)(F)F)c2)n(C)c1=O | > 79 µM (inactive) |
| O=C(COC(=O)c1ccccc1C(=O)OCC(=O)NCCc1c[nH]c2ccccc12)NCCc1c[nH]c2ccccc12 | > 79 µM (inactive) |
| CC(=O)N1CCN(C(=O)CCc2nc3ccccc3c(=O)[nH]2)CC1 | > 79 µM (inactive) |
| CC1Cc2ccccc2C(=O)N1 (stereo not given) | > 79 µM (inactive) |
| CS(=O)(=O)N(Cc1ccc(C(=O)NCCSc2ccccn2)cc1)c1ccccc1 | > 79 µM (inactive) |
| CCN(CC)CCn1c(NC(=O)c2ccc(Cl)cc2)nc2ccccc21 | > 79 µM (inactive) |
| Cc1ccc(-c2csc(N3CCC[C@@H]3C(=O)NCCn3c(-c4ccncc4)nc4ccccc43)n2)cc1 | > 79 µM (inactive) |
| COc1ccc(-c2cnc3c(NC=O)cc(-c4cccc(NS(C)(=O)=O)c4)cn23)cc1OC | 14.4 µM |
| COc1ccc2[nH]c(=O)c(CN(Cc3nnnn3Cc3ccccc3)CC3CCCO3)cc2c1 (stereo not given) | > 79 µM (inactive) |
| COc1cc(/C=N/NC(=O)NC23CC4CC(CC(C4)C2)C3)ccc1OCC(N)=O | > 79 µM (inactive) |
| CCN(CC(=O)Nc1ccc(OC)cc1)C(=O)c1cc(-c2cccs2)nn1-c1ccccc1 | 9.06 µM |
| c1cncc(-c2nc(NCC3COc4ccccc4O3)c3ccccc3n2)c1 (stereo not given) | > 79 µM (inactive) |
| NS(=O)(=O)c1ccc(CCNC(=O)c2ccc(C#CC3(O)CCCCC3)cc2)cc1 | > 79 µM (inactive) |
| CC(=O)Nc1cc(C)nn1-c1nc2ccccc2s1 | 18 µM |

| Structure (SMILES) | IC50 |
| --- | --- |
| O=[N+]([O-])c1ccc(Nc2nc(N/N=C/c3cccc(F)c3)nc(N3CCCC3)n2)cc1 | > 79 µM (inactive) |
| Nc1c(C(=O)N/N=C/c2cccnc2)oc2nc(-c3ccco3)cc(-c3ccco3)c12 | > 79 µM (inactive) |
| CC1(NC(=O)CCc2nc3ccccc3c(=O)[nH]2)CCS(=O)(=O)C1 (stereo not given) | > 79 µM (inactive) |
| O=C(CCc1nc2ccccc2c(=O)[nH]1)N1CCN(c2ccc(F)cc2)CC1 | > 79 µM (inactive) |
| CCC(C)N1C(=O)S/C(=C/c2ccc3c(c2)n(C)c(=O)n3C)C1=O (stereo not given) | > 79 µM (inactive) |
| COc1cccc(/C=N/NC(=O)c2ccncc2)c1OC(=O)c1ccc(Br)cc1 | 24.7 µM |
| COc1cc(NC(=O)c2cc3c(C)nc4ccccc4c3o2)cc(OC)c1OC | > 79 µM (inactive) |
| CCc1nc2ccc(C(=O)Nc3cccc(OCC(=O)N(C)C)c3)cn2c1N(C)Cc1cc2ccccc2s1 | 11.8 µM |
| Cc1noc(C)c1COC(=O)COc1ccc2c(C)cc(=O)oc2c1 | > 79 µM (inactive) |
| Cc1ccc(NC(=O)c2nc[nH]c2C(=O)NCCCCCCNC(=O)c2[nH]cnc2C(=O)Nc2ccc(C)cc2)cc1 | > 79 µM (inactive) |
| CCCN1C(=O)/C(=C/c2nc3ccccc3c(=O)[nH]2)c2ccccc21 | 11.2 µM |
| COC(=O)c1c(C)[nH]c(C(=O)COc2ccc3ccc(=O)oc3c2)c1C | > 79 µM (inactive) |
| CCOC(=O)c1c(NC(=O)COC(=O)Cc2n[nH]c(=O)c3ccccc23)sc(C(=O)NC)c1C | > 79 µM (inactive) |
| CC(C)c1ccccc1NC(=O)COC(=O)c1c2c(nc3ccccc13)CCN(Cc1ccccc1)C2 | > 79 µM (inactive) |
| CCOC(=O)N1CCN(C(=O)CSc2nc3c(cnn3-c3ccc(C)cc3)c(=O)[nH]2)CC1 | > 79 µM (inactive) |
| CCCn1c(=O)c(C(=O)Nc2ccccc2)c(O)c2ccccc21 | > 79 µM (inactive) |
| COc1cccc(-c2nn(-c3ccccc3)cc2C(=O)Nc2nccs2)c1 | > 79 µM (inactive) |
| O=C(CCc1nc2ccccc2c(=O)[nH]1)NNC(=O)c1ccccc1Cl | > 79 µM (inactive) |
| CCN(CC)C(=O)c1ccc2c3c(cccc13)C(=O)N(CCc1ccc(OC)c(OC)c1)C2=O | 11.5 µM |
| C[C@@H](C(=O)Nc1nc(-c2ccccn2)cs1)N1C(=O)C2CCCCC2C1=O (stereo not given in full) | > 79 µM (inactive) |
| CCOC(=O)N1CCC(NC(=O)c2cc3c(-c4ccccc4F)nn(C)c3s2)CC1 | > 79 µM (inactive) |
| CCc1cc2cccc(C)c2nc1SCC(=O)N1CCN(C(=O)c2ccco2)CC1 | > 79 µM (inactive) |
| CCOc1ccc2nc(NC(=O)CN3CCC(n4nnc5cc(F)ccc54)CC3)sc2c1 | > 79 µM (inactive) |
| CCOC(=O)c1c2c3c(cccc3n(C)c1=O)C(=O)c1ccccc1-2 | > 79 µM (inactive) |
| O=c1[nH]ccc2c(O)cccc12 | > 79 µM (inactive) |

| Structure (SMILES) | IC50 |
| --- | --- |
| CCOc1cc(-c2cc(-c3ccc(N)cc3)nc(N)c2C#N)ccc1O | 12.3 µM |
| O=C(N/N=C/c1c(O)n(-c2ccccc2Cl)c(=O)c2ccccc12)C1COc2ccccc2O1 (stereo not given) | 16.2 µM |
| COc1ccc2c(c1OC)c(=O)n1c3ccc(OC(C)C(=O)NCCN4CCOCC4)cc3c3ccnc2c31 (stereo not given) | 29.3 µM |
| COc1ccc(NC(=O)c2cc3c(=O)n(C)c4ccccc4c3n2C)cc1OC | > 79 µM (inactive) |
| O=C(N/N=C\c1ccccn1)C1COc2cc3ccccc3cc2O1 (stereo not given) | 8.87 µM |
| O=C(COC(=O)Cc1n[nH]c(=O)c2ccccc12)Nc1ncc(Cl)cc1Cl | > 79 µM (inactive) |
| CC(C)(C)OC(=O)N1CCC[C@H]1c1nnc(SCC(=O)Nc2ccc(Br)cc2)o1 | 17.7 µM |
| CCOC(=O)Cn1c(=NC(=O)c2cc(-c3cccs3)nc3ccccc23)sc2cc(S(N)(=O)=O)ccc21 | > 79 µM (inactive) |
| NC(=O)c1cccc(Nc2nc(C(N)CCc3ccccc3)cs2)n1 (stereo not given) | > 79 µM (inactive) |
| CCOC(=O)N1CCc2c(sc(NC(=O)CN3CCOCC3)c2C(=O)Nc2ccccc2)C1 | 54.6 µM (inactive) |
| Cc1c(C#N)c(N)nc2c3c(sc12)NC(=O)CC3c1ccccc1 (stereo not given) | > 79 µM (inactive) |
| O=C(CCc1nc2ccccc2c(=O)[nH]1)NNC(=O)c1ccc(Cl)cc1 | > 79 µM (inactive) |
| CC(=O)c1ccc(-c2[nH]c3ccccc3c2CCN2C(=O)c3ccccc3C2=O)cc1 | > 79 µM (inactive) |
| COc1cc(/C=N/NC(=O)c2ccncc2)ccc1OCC(=O)Nc1ccc(C)c(C)c1 | > 79 µM (inactive) |
| COc1cc(OC)c(-c2nn3c(-c4ccco4)nnc3s2)cc1OC | 6.54 µM |
| COc1ccc(-c2csc(NC(=O)CCCc3nc4ccccc4c(=O)[nH]3)n2)cc1OC | 25.3 µM |
| O=C(Nc1ccccc1)c1nc[nH]c1C(=O)NCCNC(=O)c1[nH]cnc1C(=O)Nc1ccccc1 | > 79 µM (inactive) |
| COc1ccccc1N1CCN(C(=O)c2ccc3nc(-c4ccco4)c(-c4ccco4)nc3c2)CC1 | 17.6 µM |
| COC(=O)c1c(C)[nH]c(O)c1C=Nc1ccc(Oc2ccccc2)cc1 | > 79 µM (inactive) |
| CCN(CC)CCn1c2c(c(SCC(=O)Nc3cccc(C(C)=O)c3)nc1=O)CCCC2 | 13.1 µM |
| Cc1cc(-c2nn3c(-c4ccccc4)nnc3s2)c2ccccc2n1 | > 79 µM (inactive) |
| O=c1[nH]nc(CNc2ccc(C(F)(F)F)cc2)c2ccccc12 | 15.1 µM |
| COC(=O)/C=C/c1ccc(OC(=O)OC)c(OC(=O)OC)c1 | > 79 µM (inactive) |
| C=CC[C@@H](CC(=O)N[C@H](CO)Cc1ccccc1)C(=O)N[C@@H](COC(=O)[C@@H](CC=C)CC(=O)OC(C)(C)C)Cc1ccccc1 | 17.5 µM |
| COc1ccc(-c2cc(C(=O)NNC(=O)c3csc(N4CCOCC4)n3)c3ccccc3n2)cc1 | > 79 µM (inactive) |
